Patent US9809861B2, “Method of evaluating inhibitory effect on damp-dry malodor” (Kao Corporation, priority 2012, dated 2017)

What was measured:
fadB gene = assay: Change in expression amount of fadB gene in the presence of test substance (real time PCR); type: cell-based, Moraxella sp. KMC4-1; details: for Change in the expression amount of fadB gene: Substance (1) 10 ppm, (2)(3)(5)(6) 100 ppm, (4) 500 ppm; for expression amount of the fadB gene by the microorganisms: summary of Table 12
Description: (§1) The substances (1) to (7) described below each were added to 4 mL SCD liquid medium (manufactured by NIHON PHARMACEUTICAL CO., LTD). As a control, a medium system not added with any test substance was also prepared. To these medium, one platinum loop of precultured Moraxella sp. KMC4-1 was inoculated and cultured for 24 hours at 35 C while shaking (160 rpm).
(§2) To the cell liquid cultured for 24 hours, 10 mg of 16-methyloctadecanoic acid was added as a sebaceous dirt component. After culturing again for 6 hours at 35° C., the cells were collected. As a control, a system not added with a sebaceous dirt component was also cultured and cells were collected therefrom.
(§3) An RNA sample was prepared from the collected cells in the same manner as in the test example 1.
(§4) Reaction solutions for real time PCR were prepared in the same manner as above, except that, instead of the primer set including the primer containing the oligonucleotide having the base sequence set forth in SEQ ID NO: 13 and the primer containing the oligonucleotide having the base sequence set forth in SEQ ID NO: 14, the primer set described in Tables 11 to 13 was used.
(§5) The reaction solutions for real time PCR each were subjected to a gene amplification by using an automatic gene amplification thermal cycler DICE Real time system II (manufactured by Takara Bio Inc.), and then the expression amount of each of the fatty acid desaturase gene (the Δ9desaturase gene) and the β oxidation-relating enzyme genes (the fadB gene and the fadD gene) was measured. PCR reaction conditions were 40 cycles of (i) a thermal denaturation reaction at 95° C. for 20 seconds, and (ii) an annealing reaction and an elongation reaction at 60° C. for 30 seconds.
(§6) By having the gene expression of 16S rRNA as an internal standard, and having the gene expression amount when adding no sebaceous dirt component and no test substance as a reference value, change in expression amount of each gene was calculated relative to the reference value. A sample, in which the expression amount of the gene was ½ times or less the reference value, was rated as “A”; a sample, in which the expression amount of the gene was more than ½ times and ⅔ times or less the reference value, was rated as “B”; and a sample, in which the expression amount of the gene was more than ⅔ times the reference value, was rated as “C”.

Δ9desaturase gene = assay: Change in expression amount of Δ9desaturase gene in the presence of test substance (real time PCR); type: cell-based, Moraxella sp. KMC4-1; details: Substance (1) 10 ppm, (2)(3)(5)(6) 100 ppm, (4) 500 ppm
Description: as §1, §2, §3
By mixing 2 μL solution of the prepared template diluted ×20 with distilled sterile water, 12.5 μL of TaKaRa SYBR Premix EX Taq (trade name, manufactured by Takara Bio Inc.), 0.5 μL of the primer (des_F1, […]) containing the oligonucleotide having the base sequence set forth in SEQ ID NO: 13, 0.5 μL of the primer (des_R1, […]) containing the oligonucleotide having the base sequence set forth in SEQ ID NO: 14 and 9.5 μL of distilled sterile water, 25 μL reaction solution for real time PCR was prepared.
as §4, §5, §6

fadD gene = assay: Change in expression amount of fadD gene in the presence of test substance (real time PCR); type: cell-based, Moraxella sp. KMC4-1; details: for Change in the expression amount of fadD gene: Substance (1) 10 ppm, (2)(3)(5)(6) 100 ppm, (4) 500 ppm
Description: as §1, §2, §3, §4, §5, §6

Moraxella sp. KMC4-1 = assay: Growth-inhibitory test; type: cell-based; details: SCD liquid medium, 24 hours, 35° C., (4) 500 ppm; for Growth-inhibitory effect: initial 10^4 CFU/mL, Substance (1) 10 ppm, (2)(3)(5)(6) 100 ppm
Description: To 4 mL of SCD liquid medium (manufactured by NIHON PHARMACEUTICAL CO., LTD), the substances (1) to (7) each were added so as to be the final concentration described in Table 15. As a control, a medium system not added with any test substance was also prepared. To the medium, the precultured Moraxella sp. KMC4-1 was inoculated so as to be the initial concentration of 10^4 CFU/mL and cultured for 24 hours at 35° C. while shaking (160 rpm). After that, it was subjected to serial dilution using LP dilution solution (NIHON PHARMACEUTICAL CO., LTD). Then, by using SCD-LP agar medium (NIHON PHARMACEUTICAL CO., LTD), the number of bacteria remained alive was determined.
As for the growth-inhibitory and the bactericidal effect, the evaluation was made as follows: compared to the control, when there was the bacteria number decrease of log 3 or more, it was rated as “A”; when there was the bacteria number decrease of log 1 or more but less than log 3, it was rated as “B”; and when there was the bacteria number decrease of less than log 1, it was rated as “C”.

[1] = primers SEQ ID NO: 13 / 14, 16-methyloctadecanoic acid added, relative to reference without sebaceous dirt component and test substance

SMILES	Change in the expression amount of fadB gene (fadB gene; primers SEQ ID NO: 25 / 26)	Change in the expression amount of fadB gene (fadB gene; primers SEQ ID NO: 27 / 28)	Change in the expression amount of fadB gene (fadB gene; primers SEQ ID NO: 29 / 30)	Change in the expression amount of fadB gene (fadB gene; primers SEQ ID NO: 31 / 32)	expression amount of the fadB gene by the microorganisms (fadB gene)	Change in the expression amount of Δ9desaturase gene (Δ9desaturase gene; [1])	Change in the expression amount of Δ9desaturase gene (Δ9desaturase gene; primers SEQ ID NO: 15 / 16)	Change in the expression amount of Δ9desaturase gene (Δ9desaturase gene; primers SEQ ID NO: 17 / 18)	Change in the expression amount of Δ9desaturase gene (Δ9desaturase gene; primers SEQ ID NO: 19 / 20)	Change in the expression amount of Δ9desaturase gene (Δ9desaturase gene; primers SEQ ID NO: 21 / 22)	Change in the expression amount of Δ9desaturase gene (Δ9desaturase gene; primers SEQ ID NO: 23 / 24)	Change in the expression amount of fadD gene (fadD gene; primers SEQ ID NO: 35 / 36)	Change in the expression amount of fadD gene (fadD gene; primers SEQ ID NO: 41 / 42)	expression amount of the fadD gene by the microorganisms (fadD gene; summary of Table 13)	Growth-inhibitory effect (Moraxella sp. KMC4-1)	Growth-inhibitory effect: bacteria number decrease compared to the control (Moraxella sp. KMC4-1; Substance (2) 100 ppm) [log]
CNc1ccccc1C(=O)OC [Substance (3)]	A (the expression amount of the gene was ½ times or less the reference value)	A (the expression amount of the gene was ½ times or less the reference value)	A (the expression amount of the gene was ½ times or less the reference value)	B (the expression amount of the gene was more than ½ times and ⅔ times or less the reference value)	decreased	C (the expression amount of the gene was more than ⅔ times the reference value)	C (the expression amount of the gene was more than ⅔ times the reference value)	C (the expression amount of the gene was more than ⅔ times the reference value)	C (the expression amount of the gene was more than ⅔ times the reference value)	C (the expression amount of the gene was more than ⅔ times the reference value)	C (the expression amount of the gene was more than ⅔ times the reference value)	A (the expression amount of the gene was ½ times or less the reference value)	A (the expression amount of the gene was ½ times or less the reference value)	decreased	C (the bacteria number decrease of less than log 1)	–
CCCCCCCC/C=C\CCCCCCCC(=O)O [Substance (4)]	A (the expression amount of the gene was ½ times or less the reference value)	A (the expression amount of the gene was ½ times or less the reference value)	A (the expression amount of the gene was ½ times or less the reference value)	A (the expression amount of the gene was ½ times or less the reference value)	decreased	C (the expression amount of the gene was more than ⅔ times the reference value)	C (the expression amount of the gene was more than ⅔ times the reference value)	C (the expression amount of the gene was more than ⅔ times the reference value)	C (the expression amount of the gene was more than ⅔ times the reference value)	C (the expression amount of the gene was more than ⅔ times the reference value)	C (the expression amount of the gene was more than ⅔ times the reference value)	C (the expression amount of the gene was more than ⅔ times the reference value)	C (the expression amount of the gene was more than ⅔ times the reference value)	–	B (the bacteria number decrease of log 1 or more but less than log 3)	2
O=C[C@H](O)[C@@H](O)[C@H](O)[C@H](O)CO [Substance (5)]	C (the expression amount of the gene was more than ⅔ times the reference value)	C (the expression amount of the gene was more than ⅔ times the reference value)	C (the expression amount of the gene was more than ⅔ times the reference value)	C (the expression amount of the gene was more than ⅔ times the reference value)	–	C (the expression amount of the gene was more than ⅔ times the reference value)	C (the expression amount of the gene was more than ⅔ times the reference value)	C (the expression amount of the gene was more than ⅔ times the reference value)	C (the expression amount of the gene was more than ⅔ times the reference value)	C (the expression amount of the gene was more than ⅔ times the reference value)	C (the expression amount of the gene was more than ⅔ times the reference value)	C (the expression amount of the gene was more than ⅔ times the reference value)	C (the expression amount of the gene was more than ⅔ times the reference value)	–	C (the bacteria number decrease of less than log 1)	–
